Results published in article PMC6862209, “Deep Eutectic Solvents as New Reaction Media to Produce Alkyl-Glycosides Using Alpha-Amylase from Thermotoga maritima” (International Journal of Molecular Sciences, 2019).

What was measured:
[1] = target: T1, Amy A (α-amylase from Thermotoga maritima) (Thermotoga maritima, UniProt Q9S5Y2); experiment: HPLC of methyl glycosides after glucoamylase treatment; type: biochemical; settings: acceptor in alcoholysis; donor maltotriose 50 mM, 75 °C, choline chloride:urea (1:2):water
T1 construct: gene TM_1840; heterologous expression in E. coli
T1 sequence (Q9S5Y2 27-556): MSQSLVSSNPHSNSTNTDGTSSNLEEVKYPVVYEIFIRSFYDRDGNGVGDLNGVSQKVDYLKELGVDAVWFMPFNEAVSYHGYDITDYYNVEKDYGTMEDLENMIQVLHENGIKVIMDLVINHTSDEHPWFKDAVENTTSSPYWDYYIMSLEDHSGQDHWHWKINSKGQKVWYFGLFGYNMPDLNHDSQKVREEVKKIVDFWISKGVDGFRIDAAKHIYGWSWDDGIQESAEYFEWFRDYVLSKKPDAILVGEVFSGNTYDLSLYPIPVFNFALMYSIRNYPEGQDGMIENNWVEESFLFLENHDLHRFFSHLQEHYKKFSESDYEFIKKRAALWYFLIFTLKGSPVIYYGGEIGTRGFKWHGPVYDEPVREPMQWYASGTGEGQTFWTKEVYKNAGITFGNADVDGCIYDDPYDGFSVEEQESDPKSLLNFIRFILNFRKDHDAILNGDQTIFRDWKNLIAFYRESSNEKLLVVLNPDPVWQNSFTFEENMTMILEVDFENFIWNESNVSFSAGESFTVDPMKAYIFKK

[2] = target: T1, Amy A (α-amylase from Thermotoga maritima); experiment: HPLC of remaining maltotriose (partially purified enzyme); type: biochemical; settings: 50 mM maltotriose, 75 °C, 4 h; water:DES cosolvent series, hydrolysis to maltose and glucose

Structure (SMILES)	HPLC of methyl glycosides after glucoamylase treatment [1]	HPLC of remaining maltotriose (partially purified enzyme) [2]
CO [methanol]	Methyl-glucoside, methyl-maltoside, and interestingly, also methyl-maltotrioside were detected.	
OC[C@H]1O[C@H](O[C@H]2[C@H](O)[C@@H](O)[C@@H](O[C@H]3[C@H](O)[C@@H](O)C(O)O[C@@H]3CO)O[C@@H]2CO)[C@H](O)[C@@H](O)[C@@H]1O (some centres unmarked) [maltotriose]		Substrate conversion was measured as the amount of maltotriose hydrolyzed to maltose and glucose.
